From paper PMC3842914, “Meleagrin, a New FabI Inhibitor from Penicillium chryosogenum with at Least One Additional Mode of Action” (PLoS ONE, 2013) come the findings set out here.

pIC50: −log10 of the molar value. In brackets after ≈: the same amount, converted by molar mass. Read-outs that look alike come from different tables or passages of the source.

One experiment concerns the target T1, E. coli FabI (Escherichia coli, UniProt P0AEK4).
T1 construct: made in house
In words: E. coli FabI enzyme assay (NADH as cofactor). The format is biochemical. The text has this:
(§1) S. aureus FabI and E. coli FabI enzymes were cloned, overexpressed, and purified as described previously. The wild-type fabK gene was amplified by PCR from genomic DNA obtained from Streptococcus pneumoniae KCTC 5412 by using the primers 5′-[…]-3′ and 5′-[…]-3′, which contained NdeI and XhoI restriction sites, respectively. After the DNA sequence was confirmed, the gene was cloned into the pET22b vector (Novagen, Gibbstown, NJ, USA). The construct was transformed into E. coli BL21 (DE3) for expression following induction with isopropylthiogalactoside. The C-terminal His-tagged protein was purified as described previously. Assays were conducted in half-area, 96-well microtiter plates. The compounds were dissolved in DMSO and evaluated in 100-μL assay mixtures containing components specific for each enzyme (see below). Reduction of the trans-2-octenoyl N-acetylcysteamine (t-o-NAC thioester) substrate analog was measured spectrophotometrically following the utilization of NADH or NADPH at 340 nm at 30°C for the linear period of the assay. S. aureus FabI assays contained 50 mM sodium acetate (pH 6.5), 200 μM t-o-NAC thioester, 200 μM NADPH, and 150 nM S. aureus FabI.
(§2) NADH was used as a cofactor rather than NADPH for the E. coli FabI assay. Substrate concentrations used for the Lineweaver–Burk plot were 100, 200, 300, and 400 μM, whereas the concentrations of the cofactor were 100, 200, 400, and 600 μM. The rate of decrease in the amount of NADPH in each reaction was measured with a microtiter enzyme-linked immunosorbent assay (ELISA) reader by using the SOFTmax PRO software (Molecular Devices, Sunnyvale, CA, USA). The inhibitory activity was calculated according to the following formula: % of inhibition = 100× [1− (rate in the presence of compound/rate in the untreated control)]. IC50 values were calculated by fitting the data to a sigmoid equation. An equal volume of DMSO solvent was used for the untreated control. FabK assays contained 100 mM sodium acetate (pH 6.5), 2% glycerol, 200 mM NH4Cl, 50 µM t-o-NAC thioester, 200 µM NADH, and 150 nM S. pneumoniae FabK.

In another experiment the test system is S. pneumoniae KCTC 3932. In words: MIC by broth microdilution, S. pneumoniae KCTC 3932. Conditions: Streptococcus pneumoniae. The format is cell-based. How it is done: (§3) Whole-cell antimicrobial activity was determined by broth microdilution as described previously. The test strains except for S. pneumoniae were grown to mid-log phase in Mueller–Hinton broth and diluted 1,000-fold in the same medium. Cells (10^5/mL) were inoculated into Mueller–Hinton broth and dispensed at 0.2 mL/well into a 96-well microtiter plate. S. pneumoniae was grown in tryptic soy broth supplemented with 5% sheep blood. MICs were determined in triplicate by serial 2-fold dilutions of test compounds. […] Bacterial growth was determined by measuring the absorption at 650 nm by using a microtiter ELISA reader.
For orientation: In broth dilution the organism is exposed to a series of concentrations in liquid medium.

The next experiment has as its system S. aureus KCTC 1916. In words: MIC, S. aureus KCTC 1916. To be noted: Staphylococcus aureus, KCTC1916. The format is cell-based. How it is done:
as §3

For a further experiment, the target named is T2, S. pneumoniae FabK (Streptococcus pneumoniae, UniProt Q9FBC5).
T2 sequence (Q9FBC5 1-324): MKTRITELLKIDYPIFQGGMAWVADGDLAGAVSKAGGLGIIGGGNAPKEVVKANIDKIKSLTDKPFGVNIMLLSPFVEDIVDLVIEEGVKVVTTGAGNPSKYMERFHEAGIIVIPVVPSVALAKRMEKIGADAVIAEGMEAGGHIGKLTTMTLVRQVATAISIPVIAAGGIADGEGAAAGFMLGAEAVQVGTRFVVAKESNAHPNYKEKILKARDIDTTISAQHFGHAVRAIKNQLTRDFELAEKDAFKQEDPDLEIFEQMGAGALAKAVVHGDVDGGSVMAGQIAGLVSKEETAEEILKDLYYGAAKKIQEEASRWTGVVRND
In words: S. pneumoniae FabK enzyme assay. The format is biochemical.
Source text: as §1, §2

In a further experiment the test system is E. coli EW1b. In words: Overexpression assay, MIC for pump-negative (tolC) E. coli EW1b. The format is cell-based. To be noted: Escherichia coli. The method, then:
as §3
An overexpression assay using S. aureus RN4220, S. aureus RN4220 (pE194), and S. aureus RN4220 (pE194-fabI) was conducted to perform target validation of FabI inhibitors as described previously. Additionally, both fabI- and fabK-overexpressing E. coli were constructed to test a multitarget effect of the compounds. The wild-type fabI gene from the genomic DNA of E. coli W3110 was amplified by PCR by using the primers 5′-[…]-3′ and 5′-[…]-3′. The wild-type fabK gene from the genomic DNA of S. pneumoniae KCTC 5412 was amplified by PCR by using the primers 5′-[…]-3′ and 5′-[…] […]-3′. The resulting products were cloned into the pBAD-TOPO TA expression vector (Invitrogen, Carlsbad, CA, USA) to yield the pBAD-fabI and pBAD-fabK recombinant plasmids, which placed the expression of the genes fabI and fabK, respectively, under the control of the arabinose promoter. Recombinant pBAD-fabI and pBAD-fabK were then introduced into the pump-negative (tolC) E. coli EW1b via electroporation to generate E. coli EW1b (pBAD-fabI) and E. coli EW1b (pBAD-fabK), respectively.

The subject of experiment [1] is incorporation of [1-14C] acetate into membrane fatty acids in S. aureus. In words: [14C] acetate incorporation into membrane fatty acids in S. aureus. Format: cell-based, Staphylococcus aureus. Conditions: for pIC50: Staphylococcus aureus, read-out: IC50 [14C] acetate incorporation; for Inhibition of acetate incorporation relative to the less active compounds 1, 3, and 4: [1-14C] acetate into membrane fatty acids in S. aureus. How it is done:
To monitor the effects of compound 1 on lipid, DNA, RNA, protein, and cell wall biosynthesis, its effects on the incorporation of [1-^14C] acetate (50 mCi/mmol), [2-^14C] thymidine (59.8 mCi/mmol), [U-^14C] uridine (539 mCi/mmol), L-[U-^14C] leucine (306 mCi/mmol) or L-[U-^14C] isoleucine (329 mCi/mmol), and N-acetyl-D-[1-^14C] glucosamine (58.1 mCi/mmol) into S. aureus and S. pneumoniae were measured as described previously. S. aureus was exponentially grown to an A650 of 0.2 in Mueller–Hinton broth. S. pneumoniae was grown in tryptic soy broth supplemented with 5% sheep blood. […] An equal volume of DMSO solvent was added to the untreated control. After incubation with the radiolabeled precursors at 37°C for 1 h, followed by centrifugation, the cell pellets were washed twice with PBS buffer. After acetate incorporation, the total cellular lipids were extracted with chloroform-methanol-water. The incorporated radioactivity in the chloroform phase was measured by scintillation counting. For the other precursors, incorporation was terminated by adding 10% (w/v) TCA and cooling on ice for 20 min. The precipitated material was collected on Whatman GF/C glass microfiber filters, washed with TCA and ethanol, dried, and counted using a scintillation counter. […] In all experiments, known antibacterial agents were included as positive controls.
We measured their effects on the incorporation of [1-^14C] acetate into membrane fatty acids in S. aureus.

For the next experiment, the system named is E. coli KCTC 1924. In words: MIC by broth microdilution, E. coli KCTC 1924. To be noted: Escherichia coli. Format: cell-based. The method, then: as §3
Setting [2] is: KCTC3932, read-out: MIC S. pneumoniae.
Where [3] appears, read: read-out: MIC E. coli EW1b (+) Ara.
Where [4] appears, read: read-out: MIC E. coli EW1b (−) Ara.
The mark [5] stands for this setting: KCTC1924, read-out: MIC E. coli.
[6] abbreviates: KCTC3932, S. pneumoniae KCTC 3932, read-out: MIC S. pneumoniae.
Setting [7] is: KCTC1924, E. coli KCTC 1924, read-out: MIC E. coli.
Setting [8] is: S. pneumoniae FabK, read-out: IC50 spFabK.

T1 sequence (P0AEK4 whole entry): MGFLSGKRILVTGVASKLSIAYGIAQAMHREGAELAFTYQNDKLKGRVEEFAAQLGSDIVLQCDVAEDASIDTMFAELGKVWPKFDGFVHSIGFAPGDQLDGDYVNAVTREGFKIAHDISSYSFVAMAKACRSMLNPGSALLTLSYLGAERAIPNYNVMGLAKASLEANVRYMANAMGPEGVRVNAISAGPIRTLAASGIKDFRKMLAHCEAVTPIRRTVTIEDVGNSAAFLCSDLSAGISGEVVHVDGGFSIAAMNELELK

What is called MIC is the lowest concentration found to suppress growth. As for `C=CC(C)(C)C12C=C(O)C(=O)N3/C(=C/c4cnc[nH]4)C(=O)NC31N(OC)c1ccccc12` (stereo not shown) [Compound 1, meleagrin], the pIC50 was 4.48 at E. coli FabI, less than 3.70 on S. pneumoniae FabK and 4.39 in experiment [1]. Also, the MIC turned out to be 64 µg/mL (≈ 148 µM) in the experiment with S. pneumoniae KCTC 3932 (setting [2]); 32 µg/mL (≈ 73.8 µM) against S. aureus KCTC 1916; 32 µg/mL (≈ 73.8 µM) with E. coli EW1b (setting [3]); 32 µg/mL (≈ 73.8 µM) in the experiment on E. coli EW1b (setting [4]); 32 µg/mL (≈ 73.8 µM) in the experiment with E. coli KCTC 1924 (setting [5]).
In the case of `C=CC(C)(C)C12C=C(OC)C(=O)N3/C(=C/c4cnc[nH]4)C(=O)NC31N(OC)c1ccccc12` (stereo not shown) [Compound 3, oxaline], the pIC50 is 4.41 at E. coli FabI, less than 3.70 on S. pneumoniae FabK and 4.47 in experiment [1]. For the same compound, the MIC with S. pneumoniae KCTC 3932 (setting [6]) is 64 µg/mL (≈ 143 µM); in the experiment on E. coli KCTC 1924 (setting [7]), 32 µg/mL (≈ 71.5 µM).
For the compound `C=CC(C)(C)C12C=C(O)C(=O)N3/C(=C/c4cnc[nH]4)C(=O)N(C)C31N(OC)c1ccccc12` (stereo not shown) [Compound 4, N^14-methylmeleagrin], the pIC50 on E. coli FabI is 4.48; against S. pneumoniae FabK it was less than 3.70; in experiment [1] it was 4.45. In addition, the results for the MIC with S. pneumoniae KCTC 3932 (setting [2]) and in the experiment with E. coli KCTC 1924 (setting [5]) were 64 µg/mL (≈ 143 µM) and 32 µg/mL (≈ 71.5 µM), respectively.
For the compound `C=CC(C)(C)C12C=C(OC)C(=O)N3/C(=C/c4cnc[nH]4)C(=O)N(C)C31N(OC)c1ccccc12` (stereo not shown) [Compound 5, O,N^14-dimethylmeleagrin], the results for the pIC50 (at E. coli FabI; on S. pneumoniae FabK (setting [8]); in experiment [1]) were 4.81, less than 3.70 and 4.79, respectively. In addition, the minimum inhibitory concentration (MIC) in the experiment with S. pneumoniae KCTC 3932 (setting [6]) was 16 µg/mL (≈ 34.7 µM); with S. aureus KCTC 1916 (S. aureus KCTC 1916, read-out: MIC), 16 µg/mL (≈ 34.7 µM); in the experiment on E. coli EW1b (setting [3]), 16 µg/mL (≈ 34.7 µM); in the experiment with E. coli EW1b (setting [4]) it was 16 µg/mL (≈ 34.7 µM); in the experiment with E. coli KCTC 1924 (setting [7]) it was 8 µg/mL (≈ 17.3 µM). For the same compound, in experiment [1], the “Inhibition of acetate incorporation relative to the less active compounds 1, 3, and 4” value is “approximately 2 fold”.
For the compound `C=CC(C)(C)C12C=C(OC)C(=O)N3/C(=C/c4cnc[nH]4)C(=O)N(C)C31Nc1ccccc12` (stereo not shown) [Compound 6, O,N^14-dimethylglandicolin], the values for the pIC50 (on E. coli FabI; on S. pneumoniae FabK; in experiment [1]) were 4.81, less than 3.70 and 4.70, respectively. Besides, the MIC with S. pneumoniae KCTC 3932 (setting [2]) came out at 16 µg/mL (≈ 37.1 µM); in the experiment on E. coli KCTC 1924 (setting [5]) it was 8 µg/mL (≈ 18.5 µM). Besides, the “Inhibition of acetate incorporation relative to the less active compounds 1, 3, and 4” value in experiment [1] is “approximately 2 fold”.
For `C=CC(C)(C)C12C=C(O)C(=O)N3/C(=C/c4cnc[nH]4)C(=O)NC31Nc1c(Br)cccc12` (stereo not shown) [Compound 7], the pIC50 (against E. coli FabI; on S. pneumoniae FabK (setting [8]); in experiment [1]) was less than 3.70 in each case. Further, the MIC with S. pneumoniae KCTC 3932 (setting [6]) and with E. coli KCTC 1924 (setting [7]) was more than 128 µg/mL throughout.
Regarding `Oc1cc(Cl)ccc1Oc1ccc(Cl)cc1Cl` [Triclosan, reference compound], the minimum inhibitory concentration (MIC) with S. pneumoniae KCTC 3932 (setting [2]) is 64 µg/mL (≈ 221 µM); against S. aureus KCTC 1916 it was 0.01 µg/mL (≈ 0.0345 µM); in the experiment on E. coli EW1b (setting [3]) it was 0.002 µg/mL (≈ 0.00691 µM); in the experiment with E. coli EW1b (setting [4]) it was 0.002 µg/mL (≈ 0.00691 µM); with E. coli KCTC 1924 (KCTC1924, 24 h, read-out: MIC E. coli), 0.02 µg/mL (≈ 0.0691 µM); in the experiment with E. coli KCTC 1924 (setting [5]), 0.01 µg/mL (≈ 0.0345 µM). In addition, the pIC50 against S. pneumoniae FabK is less than 3.70; in experiment [1], 7.40.
